Test results: patent US6492137B1, “Response element compositions and assays employing same” (The Salk Institute for Biological Studies, priority 1989, dated 2002)

What was measured:
TRβ [1] = target: T1, TRβ (Homo sapiens, UniProt P10828); assay: ΔSV-CAT reporter cotransfection assay in CV-1 cells with TRβ expression plasmid, ±T3; format: cell-based; parameters: expressed in transfected cells; host or cells: CV-1 (monkey kidney); conditions: TRβ expression vector
T1 sequence (P10828 1-461): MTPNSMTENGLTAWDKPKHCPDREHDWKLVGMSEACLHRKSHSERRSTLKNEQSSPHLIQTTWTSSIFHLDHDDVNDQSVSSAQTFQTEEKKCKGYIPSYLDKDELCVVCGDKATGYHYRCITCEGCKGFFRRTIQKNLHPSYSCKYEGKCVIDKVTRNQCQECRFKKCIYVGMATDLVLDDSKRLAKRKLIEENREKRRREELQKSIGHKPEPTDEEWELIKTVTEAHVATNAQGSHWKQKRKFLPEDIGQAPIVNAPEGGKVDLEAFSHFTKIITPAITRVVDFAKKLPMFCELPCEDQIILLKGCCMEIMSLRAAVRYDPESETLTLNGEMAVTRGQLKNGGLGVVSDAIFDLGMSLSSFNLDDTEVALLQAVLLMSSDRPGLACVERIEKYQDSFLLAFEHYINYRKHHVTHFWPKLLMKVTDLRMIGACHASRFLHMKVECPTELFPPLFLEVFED
Text: Receptor expression plasmids used in the following cotransfection assays have been described previously (pRShTRβ [see Thompson, et al., Proc. Natl. Acad. Sci. U.S.A. 86: 3494-3498 (1989)]; pRShRARα [see Giguere, et al., Nature 330: 624-629 (1987)]; pRShRARβ and pRshRARγ [see Ishikawa, et al., Mol. Endocrinol, 4: 837-844 (1990)]; and pRShVDR, [Schule, et al., Cell 61: 497-504 (1990)]. A basal reporter plasmid ΔSV-CAT was constructed by replacing the TK promoter in TK-CAT [Damm, et al., Nature 339: 593-597 (1989)] with the SphI-HindIII fragment of the SV40 early promoter. All of the recombinant CAT reporter plasmids used herein harbor a single copy of the indicated oligonucleotides at the unique HindIII site upstream of the SV40 promoter. […] To improve production of receptor proteins in COS cells, a new eukaryotic expression vector pCMX was prepared by modifying the plasmid CDM8 [Seed, B., Nature 329: 840-842 (1987)]. The CDM8 was cut with MluI and StuI in order to release the DNA fragment encoding the CMV/T7 promoter, SV40 small t intron/poly A signal, polyoma virus enhancer/origin, and SV40 enhancer/origin. The resulting fragment was ligated to a larger fragment of PvuII-digested PUC19. An internal deletion was introduced between unique BamHI and BclI sites present in the DCM8 portion. The stuffer sequence flanked by XbaI sites was replaced with a synthetic polylinker coding for 5′-KpnI/Asp718-EcoRV-BamHI -MscI-NheI-3′, followed by a stretch of 5′-[…]-3′ (SEQ ID NO:48) which can function as a universal termination signal for protein translation. The coding sequence of the luciferase [de Wet, et al., Mol. Cell. Biol. 7: 725-737 (1987)] and human TRβ, RARα, and VDR was placed in the polylinker region of the pCMX, generating pCMX-LUC, Pcmx-Htrβ, pCMX-hRARα, and pCMX-hVDR, respectively. The translation start site of the RARα was modified to […] by attaching the synthetic linker encoding a consensus translation start signal [Hollenberg, et al., Cell 55: 899-906 (1988)].
(§1) For cotransfection assays, a monkey kidney cell line CV-1 was kept in Dulbecco's modified Eagle's medium (DMEM) supplemented with 10% charcoal-resin double split calf bovine serum. Transfections were performed via calcium-phosphate precipitation method as described by Umesono, et al. in Cell 57: 1139-1146 (1989), with 0.5 μg of a pRS receptor expression plasmid, 1.0 μg of a reporter CAT plasmid, 5 μg of pRAS-βGAL [Umesono, et al., Cell 57: 1139-1146 (1989)] as an internal control, and 8.5 μg of carrier plasmid pUC19. The cells were transfected for 8 hours; after washing the DNA precipitates, the cells were then incubated for an additional 36 hours with or without the ligand (T3, 100 nM; RA, 1 μM; 1,25-(OH)2 vitamin D3, 100 nM). Cell extracts were prepared for βGAL and CAT assays, as described by Umesono, et al., supra. Transfection of F9 teratocarcinoma cells was carried out employing a similar method except the cells were incubated for 12 hours in the presence of the DNA precipitates, and the RA was added at 1 μM for another 24 hours before harvesting the cells. 2, 5, and 4 μg of the reporter, pRAS-βGAL, and pUC19 were used, respectively.
Target hormone response elements described in FIG. 3 were synthesized as double-stranded oligonucleotides with an overhanging tetranucleotide (5′-agct-3′) at both ends. A single copy of these oligonucleotides was cloned at the unique HindIII site present in the basal promoter CAT construct ΔSV-CAT. Capitalized portions in the nucleotide sequences correspond to those found in the natural promoters except TREp and rGH21, which are synthetic. Bold letters indicate the “AGGTCA” motif and “X” denotes a nucleotide substitution from this motif.

TRβ [2] = target: T1, TRβ; assay: Gel retardation DNA-binding assay with TRβ-expressing COS cell extracts; parameters: expressed in transfected cells; host or cells: COS cells (whole-cell extract); conditions: for competition for TRβ binding to 32P-labeled MHC-N: 50-fold excess of unlabeled oligonucleotide, COS cell extracts; for TRβ binding to labeled oligonucleotide probe: gel retardation, TRβ COS cell extract
Protocol: For DNA binding assays, COS cells were cultured in DMEM with 10% calf bovine serum and transfected by the calcium phosphate method with 20 μg of the pCMX receptor expression plasmid for 6 hours followed by a glycerol shock. After incubating the transfected COS cells for another 48 hours, the cells were harvested to prepare extracts for the DNA binding assay, carried out as described by Damm et al., Nature 339: 593-597 (1989). The extracts were made in 20 mM HEPES (pH 7.4), 0.4 M KCl, 2 mM DTT and 20% glycerol. A similar method was employed to prepare a whole cell extract from F9 stem cells. For the binding, 5 μg (COS) or 10 μg (F9) of proteins was incubated on ice for 20 minutes, first in 20 mM HEPES, 80 mM KCl, 1 mM DTT, 0.1% NP40, 2.5 μg of poly dI/dC, and 10% glycerol (cold competitor oligonucleotides, when included, were added during this pre-incubation period). Then 40 fmole of ^32P-labeled oligonucleotide probe (1-2×10^5 cpm, prepared by filling-in reaction using Klenow polymerase in the presence of α-^32P-dCTP) was added to the reaction mixture, followed by incubation at room temperature for 30 minutes. The receptor-DNA complexes were resolved by electrophoresis through 5% polyacrylamide gel containing 5% glycerol at 6 V/cm at room temperature.
Oligonucleotides listed in FIG. 3 were used as a probe to test specific DNA-binding of the RARα and TRβ in a gel retardation assay.
Using the mobility shift assay, the DNA-binding capacity of extracts from COS cells expressing TRβ and RARα to these sequences was also tested.

[3] = test system: F9 teratocarcinoma stem cells; assay: CAT reporter transfection into RA responsive F9 teratocarcinoma stem cells; format: cell-based, mouse; conditions: RA 1 μM, 24 hours; no transfected receptor
Protocol: as §1
Similarly, when the same set of reporters as in FIG. 4 were transfected into F9 cells, only MHC-R (5-nucleotide spacer) and TREp are potent RAREs. In contrast, its RARE antecedents (MHC-N, MHC+1, MHC-T) are inert.

Row | Substance | T3 responsiveness (in words) (TRβ [1]) | competition for TRβ binding to 32P-labeled MHC-N (TRβ [2]) | other results
1 | M1: MHC-N with nucleotide substitutions in the proposed direct repeat motif (SEQ ID NO:15) (AGCTGGAAATGACAGGAGGACAGCAAGCT; DNA, backbone not given here; double-stranded DNA response element with agct overhangs, cloned into reporter) | completely silent to T3 | did not | –
2 | M2: MHC-N mutant with nucleotide substitutions in the presumed palindrome (SEQ ID NO:16) (AGCTGGAGGTGACGAAAGGACAGCAAGCT; DNA, backbone not given here; double-stranded DNA response element with agct overhangs, cloned into reporter) | retains a T3 response though impaired | competed | –
3 | M3: MHC-N with nucleotide substitutions in the proposed direct repeat motif (SEQ ID NO:17) (AGCTGGAGGTGACAGGAAAACAGCAAGCT; DNA, backbone not given here; double-stranded DNA response element with agct overhangs, cloned into reporter) | completely silent to T3 | did not | –
4 | MHC+1: MHC-N with half-site spacing increased by one nucleotide (SEQ ID NO:22) (AGCTGGAGGTGAACAGGAGGACAGCAAGCT; DNA, backbone not given here; double-stranded response element with agct overhangs, cloned into reporter plasmid) | – | – | function as RARE in F9 cells [3]: inert; competition for TRβ binding (mobility shift assay) (TRβ [2]; unlabeled competitor oligonucleotide, COS cells expressing TRβ): poor competitors
5 | MHC-D: segment of the MHC sequence including an adjacent sequence; deletion from MHC-L (SEQ ID NO:13) (AGCTTGAGGTGACAGGAGGACAGCAGCT; DNA, backbone not given here; double-stranded DNA response element with agct overhangs, cloned into reporter) | recovery of the full response | – | –
6 | MHC-L: wild-type MHC sequence encoding a TRE in the MHC gene promoter (SEQ ID NO:11) (AGCTCCTTGGCTCTGGAGGTGACAGGAGGACAGCAGCT; DNA, backbone not given here; double-stranded response element with agct overhangs, cloned into reporter plasmid) | responsive to T3 | – | –
7 | MHC-S: restricted region of MHC-L corresponding to the predicted palindrome (SEQ ID NO:12) (AGCTCTCTGGAGGTGACAGGAAGCT; listed as DNA, further chemistry not given here) | failed to confer T3 responsiveness | – | –
8 | MLV-LTR: thyroid response element found in the murine Maloney Leukemia Virus LTR (SEQ ID NO:19) (DNA AGCTCAGGGTCATTTCAGGTCCTTGAAGCT; listed as DNA, chemistry not given here) [reference compound] | confers T3 inducibility | – | TRβ binding to labeled oligonucleotide probe (TRβ [2]): high affinity
9 | rGH21: rat growth hormone gene sequence proposed as a candidate TRE (SEQ ID NO:20) (AGCTAGGTAAGATCAGGTAAGTAGCT; listed as DNA, chemistry not fully specified) [reference compound] | fails to confer T3-dependent transactivation | – | TRβ binding to labeled oligonucleotide probe (TRβ [2]): binds very poorly
